In US10000498B2, “Selective proton coupled folate transporter and folate receptor, and GARFTase inhibitor compounds and methods of using the same” (Duquesne University of the Holy Spirit, priority 2008, dated 2018):

How the values were obtained:
FRα = FRα (Homo sapiens, UniProt P15328); experiment: FRα binding affinity relative to folic acid; details: folic acid set to 1
[1] = target: T1, purified recombinant mouse GARFTase (Mus musculus, UniProt Q64737); experiment: In vitro GARFTase inhibition assay; assay type: biochemical
T1 sequence (Q64737 2-1010 limits assumed): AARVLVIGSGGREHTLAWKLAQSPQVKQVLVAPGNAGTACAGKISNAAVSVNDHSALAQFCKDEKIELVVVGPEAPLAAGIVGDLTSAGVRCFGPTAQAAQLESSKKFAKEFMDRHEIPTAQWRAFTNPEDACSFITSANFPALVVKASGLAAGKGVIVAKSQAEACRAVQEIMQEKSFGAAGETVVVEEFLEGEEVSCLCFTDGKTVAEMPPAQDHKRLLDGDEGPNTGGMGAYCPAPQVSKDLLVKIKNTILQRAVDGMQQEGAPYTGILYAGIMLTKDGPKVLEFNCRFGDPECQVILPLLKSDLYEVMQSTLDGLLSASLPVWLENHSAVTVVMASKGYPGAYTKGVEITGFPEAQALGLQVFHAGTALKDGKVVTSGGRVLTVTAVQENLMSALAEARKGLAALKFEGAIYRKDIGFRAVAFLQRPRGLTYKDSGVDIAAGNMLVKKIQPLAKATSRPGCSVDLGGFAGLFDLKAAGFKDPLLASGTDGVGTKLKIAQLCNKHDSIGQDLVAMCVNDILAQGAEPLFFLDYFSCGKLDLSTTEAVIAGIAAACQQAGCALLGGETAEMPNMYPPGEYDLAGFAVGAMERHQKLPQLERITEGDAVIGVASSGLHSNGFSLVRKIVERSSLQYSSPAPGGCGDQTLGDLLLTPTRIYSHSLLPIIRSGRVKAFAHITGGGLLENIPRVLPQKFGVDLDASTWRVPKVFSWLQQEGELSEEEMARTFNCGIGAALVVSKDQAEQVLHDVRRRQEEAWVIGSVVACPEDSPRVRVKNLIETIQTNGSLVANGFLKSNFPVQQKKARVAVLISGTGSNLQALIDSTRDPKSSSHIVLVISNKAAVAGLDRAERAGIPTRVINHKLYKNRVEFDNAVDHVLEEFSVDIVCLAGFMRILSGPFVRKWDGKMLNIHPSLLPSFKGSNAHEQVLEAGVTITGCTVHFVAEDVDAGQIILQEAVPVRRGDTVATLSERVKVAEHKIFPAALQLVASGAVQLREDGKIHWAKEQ

FRα, sequence (P15328 25-234): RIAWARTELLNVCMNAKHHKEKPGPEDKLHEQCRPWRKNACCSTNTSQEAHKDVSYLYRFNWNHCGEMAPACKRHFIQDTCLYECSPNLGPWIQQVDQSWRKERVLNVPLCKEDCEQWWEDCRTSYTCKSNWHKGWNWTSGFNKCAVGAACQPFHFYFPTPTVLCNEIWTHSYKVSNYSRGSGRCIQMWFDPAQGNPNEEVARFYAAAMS

SMILES: Nc1nc2[nH]c(CCCCc3ccc(C(=O)N[C@@H](CCC(=O)O)C(=O)O)s3)cc2c(=O)[nH]1 [AAG154353, (S)-2-({5-[4-(2-amino-4-oxo-4,7-dihydro-3H-pyrrolo[2,3-d]pyrimidin-6-yl)-butyl]thiophene-2-carbonyl}-amino)-pentanedioic acid]
- FRα binding affinity compared to folic acid (FRα): very high binding affinities
- IC50 [1]: 60 nM
